Entries after “also recorded” stand apart in the source; their conditions may differ. Marks after values point to notes of the source that are not given here.
What was measured:
Type in all cases: in vivo, human
[1] = test system: Saltiness and Salivation (cheese sauce); test: Mixtures of pantolactone, m-cresol and 3-n-propylphenol in cheese sauce, expert tasters
Text: A number of combinations of Pantolactone, m-cresol and 3-n-propylphenol are noted in Table 15. Five expert tasters consumed the Control and then each of the treatments and recorded a score.

[2] = test system: Saltiness of Cheese Sauce; test: Cheese sauce (Ragu), expert tasters; details: 5 ppm solution, 1 ml (0.005 mg) between two 20 g portions
Protocol: Cheese sauce (Ragu®) was evaluated without and with a water based solution of 2-acetyl-butyrolactone and 4,6-dimethyl-alpha-pyrone at 5 ppm concentration. Five expert tasters consumed 20 g cheese sauce alone, then 1 ml of flavour modifying solution, and then again 20 g of cheese sauce.

[3] = test system: Salt Taste in a Low Sodium Soy Sauce; test: Low sodium soy sauce, expert tasters; details: 5 ppm solution, 1 ml (0.005 mg) between two 1 g soy sauce portions
Protocol: Low sodium soy sauce (Kikkoman's®) was evaluated without and with a water based solution of 2-acetyl-butyrolactone and 4-hydroxy-6-methyl-2-pyrone at 5 ppm concentration. Five expert tasters consumed 1 g low sodium soy sauce alone, then 1 ml of flavour modifying solution, and then again 1 g of the low sodium soy sauce.

[4] = test system: umami taste perception (chicken broth); test: Chicken broth, expert tasters; details: Campbell's chicken noodle soup broth 50:50 with water; 5 ppm (each); vs Control
Text: Five expert tasters consumed the Control (chicken broth) and then chicken broth with either 5 ppm of pantolactone (D-isomer) or 5 ppm of mevalonolactone.

[5] = test system: Heat Perception of Chili Extract Paste; test: Heat perception of chili extract paste in water, expert tasters; details: 5 ppm
Protocol: Pantolactone (D-isomer) and mevalonolactone were added at 5 ppm to chili extract paste and dissolved in water.
The taste perception of the product without the flavour modifying composition (Control) was compared with the same product (Test) containing the flavour modifying composition. Four expert tasters consumed the chili extract paste solution alone and then the tasters consumed one of two different dilution formats (medium or hot) of the chili extract paste solution containing 5 ppm of either pantolactone (D-isomer) or mevalonolactone.

[6] = test system: Complexity and Body of Wine; test: Wine, expert tasters; details: 5 ppm (each); vs Control
Protocol: Pantolactone (D-isomer) and mevalonolactone were added individually or as a mixture at 5 ppm each to wine.

[7] = test system: Salt Taste in a Chicken Powder Solution; test: Saltiness of chicken powder solution, DFR panel; details: chicken powder and sodium chloride in water, 5 ppm
Protocol: Panelists evaluated all samples in fully enclosed partitioned booths under white lights. Fizz NETWORK Software Acquisitions Biosystemes 2.478 was used for data collection. Each panelist was provided with filtered water for rinsing and instructed to follow a strict rinsing procedure. The rinsing protocol required panelists to rinse prior to tasting the first sample, and after tasting each sample.
Samples were evaluated using a Deviation from Reference (DFR) method. Panelists were given an identified reference labeled “000” and a coded sample simultaneously. The coded sample was either a blind, coded reference or a coded test sample. The panelists were instructed to taste the reference (000) first and mentally evaluate its SALTINESS intensity. Panelists were then instructed to taste and rate the coded sample's intensity for SALTINESS compared to the identified reference. Sample sets were given to the panelists in balanced, randomized order. A one-minute wait period was enforced between sample sets to reduce flavour carryover.
Panelists rated SALTINESS intensity difference from the reference using a 9-pt scale anchored with the following descriptors: (−4) Extremely less than Reference, (0) Same as Reference, (4) Extremely more than Reference. Number values were NOT shown on the scale. Statistical mean differences were calculated using one-way ANOVA using Fizz Calculations Biosystemes 2.478. […]

[8] = test system: Saltiness and Salivation (cheese sauce); test: Various levels of pantolactone (D-isomer) in cheese sauce, expert tasters; details: for Saltiness score: 1 = low up to 5 = high, Control 1
Text: Five expert tasters consumed the Control and then samples comprising various levels of pantolactone (D-isomer). It was concluded that pantolactone (D-isomer) is clean tasting up to 10-12 ppm in cheese sauce.

[9] = test system: Sweetness of Rebaudioside-A; test: Sweetness of Rebaudioside-A water solutions, expert tasters
Text: The product containing either 25 or 250 ppm Reb-A without pantolactone (Control) is compared with the product containing pantolactone (D-isomer) added at either 5, 10 or 20 ppm as noted in Table 6.

[10] = test system: Sweetness and Bitterness of Milk Chocolate; test: Milk chocolate, expert testers; details: 5 ppm, vs Control
Text: The taste perception of the product without the addition of flavour modification compostion (Control) was compared with the same product (Test) containing the flavour modifying composition.

[11] = test system: Flavour Balance of a Tomato-Based Condiment; test: Ketchup samples, expert panel; details: 5.4 ppm; vs Control (0.1% ethyl alcohol)
Protocol: Ketchup containing sucrose as the base sweetener in two different formulations and ketchup containing sucralose as the base sweetener in a third formulation were evaluated without (control) and with addition of pantolactone added at 5.4 ppm (test).

[12] = water, 25 ppm Reb-A, 20 ppm pantolactone (D-isomer)

Compound: CCCc1cccc(O)c1 [3-n-propylphenol]
- conclusion on blends / components [1]: effective, but exhibits flavour aroma character at slightly elevated levels

Compound: Cc1cc(C)oc(=O)c1 [4,6-dimethyl-alpha-pyrone]
- Cheese Sauce: taste observation [2]: amplified saltiness; also recorded: Slightly amplified umami

Compound: Cc1cc(O)cc(=O)o1 [4-hydroxy-6-methyl-2-pyrone]
- Kikkoman's Low Sodium Soy Sauce: taste observation [3]: amplified saltiness

Compound: C[C@@]1(O)CCOC(=O)C1 [mevalonolactone]
- Observations [4]: amplify umami taste perception; also recorded: Enhanced umami; also recorded: Fatty from chicken fat
- perception of heat (conclusion) [5]: enhanced perception of fruitiness but no change in the perception of heat
- perception of complexity and body, Box red wine - Vella Burgundy California Table Wine [6]: more complex and having more body

Compound: CC(=O)C1CCOC1=O (stereo not shown) [2-acetyl-butyrolactone]
- Kikkoman's Low Sodium Soy Sauce: taste observation [3]: amplified saltiness; also recorded: slightly amplified saltiness
- Cheese Sauce: taste observation [2]: amplified saltiness; also recorded: Slightly amplified umami

Compound: CC1(C)COC(=O)C1O (stereo not shown) [pantolactone, dihydro-3-hydroxy-4,4-dimethyl-2(3H)-furanone]
- difference in SALTINESS between Control and Variant ([7]; Control presented as the reference): significant difference
- difference in SALTINESS between Control and Variant ([7]; Variant presented as the reference): not a significant difference in SALTINESS

Compound: CC1(C)COC(=O)C1O (single isomer, unassigned) [pantolactone (D-isomer)]
- Observations [4]: amplify umami taste perception; also recorded: Fatty from chicken fat; also recorded: Enhanced umami
- Salivation effect ([8]; 0.54 ppm): no
- Saltiness score ([8]; 0.54 ppm): 1.8
- Salivation effect ([8]; 2.7 ppm): yes
- Saltiness score ([8]; 2.7 ppm): 2.2
- Salivation effect ([8]; 5.4 ppm): yes
- Saltiness score ([8]; 5.4 ppm): 2.5
- Salivation effect ([8]; 10.8 ppm): yes
- Saltiness score ([8]; 10.8 ppm): 3
- Salivation effect ([8]; 27 ppm): yes
- Saltiness score ([8]; 27 ppm): 3 **
- perception of heat (conclusion) [5]: lower perception of heat and less lingering of heat
- perception of complexity and body, Box red wine - Vella Burgundy California Table Wine [6]: more complex and having more body
- sweetness vs control sample ([9]; increasing levels added to 25 ppm Reb-A water solutions, up to 20 ppm): more sweetness than the control sample
- perception of sweetness ([9]; increasing levels added to 250 ppm Reb-A water solutions): cleaner upfront perception of sweetness with less lingering taste
- Taster Observations Taster 1 [9, 12]: second sweetest
- Taster Observations Taster 2 [9, 12]: sweet like 10 ppm
- sweetness and bitterness perception, Hershey's Bliss Chocolate [10]: perceived sweeter and less bitter
- Observations Ketchup sucralose-based, Source #3 [11]: improved dramatically in all elements
- Observations Ketchup sucrose-based, Source #1 [11]: enhanced in a balanced way
- Observations Ketchup sucrose-based, Source #2 [11]: taste enhancement but not in a balanced way

Reference: patent US12016358B2, “Composition comprising taste modulation compounds, their use and foodstuff comprising them” (V. MANE FILS, priority 2015, dated 2024)
